From patent EP1304101A1, “Composition and method for use of pyridinium derivatives in cosmetic and therapeutic applications” (Torrent Pharmaceuticals Ltd, priority 2001, dated 2003)
Values joined by “and” are separate entries in the source; they are usually repeats but may differ in a detail not shown here. Equal values may be shown once.

Key:
AGE-BSA = target: T1, AGE-BSA (Bos taurus, UniProt P02769); test: In-vitro AGE breaking activity by ELISA (16 weeks AGE-BSA incubated with test compound); format: biochemical, bovine; conditions: for % Breakage: 37°C, 24 hours; for AGE breaking activity compared to PTB / potency (AGE breaking activity compared to PTB): comparison in words based on Table 2
T1 construct: Bovine serum albumin (fraction V) (BSA); from tissue
T1 sequence (P02769 25-607): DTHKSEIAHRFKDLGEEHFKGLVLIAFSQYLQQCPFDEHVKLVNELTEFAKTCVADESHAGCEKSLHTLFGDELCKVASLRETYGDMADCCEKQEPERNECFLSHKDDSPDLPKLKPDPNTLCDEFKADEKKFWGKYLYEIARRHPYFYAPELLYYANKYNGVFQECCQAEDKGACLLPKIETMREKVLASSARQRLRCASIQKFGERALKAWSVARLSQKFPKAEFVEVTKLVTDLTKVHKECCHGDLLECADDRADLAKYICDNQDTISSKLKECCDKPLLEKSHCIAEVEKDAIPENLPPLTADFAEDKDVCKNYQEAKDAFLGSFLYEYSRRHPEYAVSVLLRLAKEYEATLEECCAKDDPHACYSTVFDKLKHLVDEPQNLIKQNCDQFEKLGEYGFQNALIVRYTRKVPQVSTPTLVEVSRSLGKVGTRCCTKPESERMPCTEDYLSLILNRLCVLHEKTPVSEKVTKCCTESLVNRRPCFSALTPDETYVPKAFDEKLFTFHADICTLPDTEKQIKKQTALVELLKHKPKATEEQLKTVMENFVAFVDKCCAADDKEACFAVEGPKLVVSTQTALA
Experimental: AGE breaking activity has been confirmed by the screening procedure as mentioned below: • Materials: • Bovine serum albumin (fraction V) (BSA) • Glucose, analytical grade • Phosphate buffered saline (PBS) • Equipment: • Microplate ELISA Reader - Spectramax Plus (Molecular Devices, USA) • Microplate washer, (Bio -Tec Instruments, USA) • pH meter • Methods of experiment: Elisa (Enzyme Linked Immunosorbent Assay) 160 mg/ml of protein, bovine serum albumin, BSA and 1.6M glucose sugar were dissolved in phosphate buffered saline, PBS. Sodium azide was added at 0.02% concentration as a preservative. The solution was filtered asceptically through a 0.22 µM filter and kept for aging at 37°C for 16 weeks. After 16 weeks the solution was dialyzed against PBS, aliquoted and stored at - 20°C.
To determine the AGE breaking activity, 10 µg/ml of the 16 weeks AGE-BSA was incubated with different concentrations of the test compounds at 37°C for 24 hours and AGE breaking activity of the test compounds by ELISA was determined.
Different concentrations of 16 weeks AGE-BSA were coated on a microtitre plate as standard. Each concentration is coated in triplicates. • 2. The test samples were coated on microtitre plate at a concentration of 5 ng. to 20 ng per well in triplicates. • 3. The plate was incubated at 37°C for one hour. • 4. After incubation the plate was washed with PBST (PBS with 0.05% Tween 20). • 5. Blocking with 5% skimmed milk in PBS at 37°C for one hour was done. • 6. The plate was washed with PBST. • 7. Primary antibody against AGE-BSA was added and the plate is incubated at 37°C for one hour. • 8. The plate was washed with PBST • 9. Secondary antibody anti rabbit HRPO (Horse-Radish Per Oxidase) conjugate was added and the plate is incubated at 37°C for one hour. • 10. The plate was washed with PBST. • 11. Colour development with OPD (orthophenylenediamine dihydrochloride) and hydrogen peroxide was done. • 12. OD (optical density) at (450nm reading - 620nm reading) was measured after incubation at 37°C for 15 minutes with Microplate ELISA Reader.
The breaker activity of the compounds were determined by the following formula: % Breaker activity =(OD450-620 Control - OD450-620 Test)/(OD450-620 Control)x 100 [formula] OD450-620Control= Absorbance of 20ng AGE-BSA after incubation at 37°C for 24 hours without test compound OD450-620Test= Absorbance of 20ng AGE-BSA after incubation at 37°C for 24 hours with required concentration of test compound

[1] = Free radical scavenging activity on ABTS radical cation (absorbance at 730nm); format: biochemical
Experimental: This method measures the relative ability of free radical scavenging substances to scavenge the ABTS ^.+ i.e. 2,2-Azino-bis-(3-ethyl benzo thiazoline-6-sulfonate) radical cation as compared to a standard amount of standard or free radical scavengers antioxidants. Incubation of ABTS with Peroxidase (metmyoglobin) and hydrogen peroxide results in the production of radical cation ABTS^.+ . This species is blue- green in colour and can be detected at 730nm. Antioxidants or free radical scavengers in the added sample that causes suppression of the color to a degree that is proportional to their concentration.
• A. Phosphate Citrate Buffer (pH 5.0): 48.5ml of 0.1M citric acid with sufficient 0.2M disodium hydrogen phosphate to produce 100 ml. • B. Phosphate Buffer Saline (PBS): Dissolve 40.0g of NaCl, 1.0g of KCI, 1.0g of KH2PO4 and 3.05g of Na2HPO4 in 1 litre milli-Q water. Dilute 200ml of above solution to 1 litre with milli-Q water (pH 7.4-7.6). • C. 3µM stock solution of Peroxidase was prepared in phosphate buffer saline pH 7.4(PBS). • D. 1.08 mM stock solution of Hydrogen peroxide was prepared in phosphate buffer saline pH 7.4 (PBS).
1 tablet (10mg) was dissolved in phosphate citrate buffer (pH 5.0).
5.0ml of ABTS stock solution was diluted with PBS to 20 ml.
320 µg of the enzyme was dissolved in 2.5 ml of PBS.
12µl of Hydrogen Peroxide (30%w/v) was diluted to 100ml with PBS.
0.1mM of stock solution of the drug was prepared which was serially diluted in PBS to get solutions of different concentrations.
To 18ml of ABTS stock solution, 100µl of Horseradish Peroxidase stock solution was added.
As soon as 1.5 ml of hydrogen peroxide solution was added to the above solution, blue-green colour of the ABTS radicals appeared. This solution was incubated at 30°C for 30 min.
980µl of ABTS radical stock solution was added to an eppendorf tube. To it was added 100µl of various PBS solution.
980µl of ABTS radical stock solutions were added to different eppendorf tubes. To it were added 100µl of various concentrations of drug solution.
The absorbance of control and test samples was recorded immediately at 730nm taking PBS as blank.
Calculation: The percent antioxidant activity was calculated according to the formula: % Antioxidant activity = [O.D of test sample/O.D of control*100]-100.

CS(=O)(=O)NNC(=O)c1ccc[n+](CC(=O)c2cc([N+](=O)[O-])cs2)c1.[Br-] [Compound 64, 1-(2-(4-nitrothien-2-yl)-2-oxoethyl)-3-(methanesulfonyl hydrazinocarbonyl) pyridinium bromide]
% Breakage (AGE-BSA; 10 mM test compound): 60.94% | AGE breaking activity compared to PTB (AGE-BSA): superior | potency (AGE breaking activity compared to PTB) (AGE-BSA): significantly much higher | Relative Free Radical Scavenging Activity(%) on ABTS ([1]; 11.5µM, listed as Compound No.64, 11.5 µM): 41.8% and 26.01% | Relative Free Radical Scavenging Activity(%) on ABTS ([1]; 23.0µM, listed as Compound No.64, 23 µM): 55.7% and 57.39% | Relative Free Radical Scavenging Activity(%) on ABTS ([1]; 46.0µM, listed as Compound No.64, 46 µM): 72.2% and 99.30% | Relative Free Radical Scavenging Activity(%) on ABTS ([1]; 92.5µM, listed as Compound No.64, 92.5 µM): 99.0% and 99.62% | Relative Free Radical Scavenging Activity(%) on ABTS ([1]; 925µM): 100%

CS(=O)(=O)NNC(=O)c1ccc[n+](CC(=O)c2ccc([N+](=O)[O-])s2)c1 [Compound 67, 1-2-(5-nitro-thien-2-yl)-2-oxoethyl)-3-(methanesulfonyl hydrazino carbonyl) pyridinium chloride]
% Breakage (AGE-BSA; 1 mM test compound): 42.01% | AGE breaking activity compared to PTB (AGE-BSA): superior | potency (AGE breaking activity compared to PTB) (AGE-BSA): significantly much higher | Relative Free Radical Scavenging Activity(%) on ABTS ([1]; 11.5µM): 13.11% | Relative Free Radical Scavenging Activity(%) on ABTS ([1]; 23.0µM): 50.70% | Relative Free Radical Scavenging Activity(%) on ABTS ([1]; 46.0µM): 97.46% | Relative Free Radical Scavenging Activity(%) on ABTS ([1]; 92.5µM): 99.43%

O=C(NCCO)c1ccc[n+](CC(=O)c2cccs2)c1 [Compound 90, 1-(2-Thien-2'-yl-2-oxoethyl)-3-((2-hydroxyethyl)aminocarbonyl) pyridinium bromide]
% Breakage (AGE-BSA; 10 mM test compound): 50% | Relative Free Radical Scavenging Activity(%) on ABTS ([1]; 11.5µM): 47.8% | Relative Free Radical Scavenging Activity(%) on ABTS ([1]; 23.0µM): 58.8% | Relative Free Radical Scavenging Activity(%) on ABTS ([1]; 46.0µM): 78.2% | Relative Free Radical Scavenging Activity(%) on ABTS ([1]; 92.5µM): 99.5% | Relative Free Radical Scavenging Activity(%) on ABTS ([1]; 925µM): 100%

CS(=O)(=O)NNC(=O)c1ccc[n+](CC(=O)c2cccs2)c1.[Cl-] [Compound 45, 1-(2-thien-2'-yl-2-oxoethyl)-3-(methanesulfonyl hydrazinocarbonyl) pyridinium chloride]
% Breakage (AGE-BSA; 10 mM test compound): 17.53% | Relative Free Radical Scavenging Activity(%) on ABTS ([1]; 11.5µM): 53.9% | Relative Free Radical Scavenging Activity(%) on ABTS ([1]; 23.0µM): 56.2% | Relative Free Radical Scavenging Activity(%) on ABTS ([1]; 46.0µM): 78.7% | Relative Free Radical Scavenging Activity(%) on ABTS ([1]; 92.5µM): 99.8% | Relative Free Radical Scavenging Activity(%) on ABTS ([1]; 925µM): 100%

O=C(NNC(=O)c1ccc[n+](CC(=O)c2cc([N+](=O)[O-])cs2)c1)c1ccc[n+](CC(=O)c2cc([N+](=O)[O-])cs2)c1 [Compound 56, N, N'-bis [3-carbonyl-1-(2-(4-nitrothien-2-yl)-2-oxoethyl)pyridinium] hydrazine dichloride]
% Breakage (AGE-BSA; 10 mM test compound): 75.92% | Relative Free Radical Scavenging Activity(%) on ABTS ([1]; 11.5µM): 43.0% | Relative Free Radical Scavenging Activity(%) on ABTS ([1]; 23 µM): 57.2% | Relative Free Radical Scavenging Activity(%) on ABTS ([1]; 46 µM): 71.6% | Relative Free Radical Scavenging Activity(%) on ABTS ([1]; 92.5µM): 97.7% | Relative Free Radical Scavenging Activity(%) on ABTS ([1]; 925µM): 100%

CCOC(=O)C[n+]1cccc(C(=O)NNc2ccccn2)c1.[Br-] [Compound 4, 1-(2-ethoxy-2-oxoethyl) -3-(2-(2-pyridyl) hydrazinocarbonyl) pyridinium bromide]
% Breakage (AGE-BSA; 10 mM test compound): 30% | AGE breaking activity compared to PTB (AGE-BSA): superior | Relative Free Radical Scavenging Activity(%) on ABTS ([1]; 11.5µM): 58.2% | Relative Free Radical Scavenging Activity(%) on ABTS ([1]; 23.0µM): 64.3% | Relative Free Radical Scavenging Activity(%) on ABTS ([1]; 46.0µM): 69.3% | Relative Free Radical Scavenging Activity(%) on ABTS ([1]; 92.5µM): 98.6% | Relative Free Radical Scavenging Activity(%) on ABTS ([1]; 925µM): 100%

CS(=O)(=O)NNC(=O)c1ccc[n+](CC(=O)c2ccc(Cl)s2)c1.[Br-] [Compound 55, 1-(2-(5-chlorothien-2-yl)-2-oxoethyl)-3-(methanesulfonyl hydrazinocarbonyl) pyridinium bromide]
% Breakage (AGE-BSA; 10 mM test compound): 40.85% | Relative Free Radical Scavenging Activity(%) on ABTS ([1]; 11.5µM): 46.47% | Relative Free Radical Scavenging Activity(%) on ABTS ([1]; 23.0µM): 84.97% | Relative Free Radical Scavenging Activity(%) on ABTS ([1]; 46.0µM): 99.50% | Relative Free Radical Scavenging Activity(%) on ABTS ([1]; 92.5µM): 99.93%

CC(C)NC(=O)C[n+]1cccc(C(=O)NNS(C)(=O)=O)c1.[Cl-] [Compound 43, 1-(2-isopropylamino-2-oxoethyl)-3-(2-methylsulfonylhydrazinocarbonyl) -pyridinium chloride]
% Breakage (AGE-BSA; 10 mM test compound): 10.85%

CS(=O)(=O)NNC(=O)c1ccc[n+](CC(=O)N2CCC(Cc3ccccc3)CC2)c1.[Cl-] [Compound 51, 1-(2-(4-benzylpiperidin-1-yl)-2-oxoethyl)-3-(methanesulfonyl hydrazinocarbonyl) pyridinium chloride]
% Breakage (AGE-BSA; 10 mM test compound): 20.94% | Relative Free Radical Scavenging Activity(%) on ABTS ([1]; 11.5µM): 0.00% | Relative Free Radical Scavenging Activity(%) on ABTS ([1]; 23.0µM): 21.64% | Relative Free Radical Scavenging Activity(%) on ABTS ([1]; 46.0µM): 52.82% | Relative Free Radical Scavenging Activity(%) on ABTS ([1]; 92.5µM): 83.94%

CCOC(=O)C[n+]1cccc(C(=O)OCCOC(=O)c2ccccc2)c1.[Br-] [Compound 17, 1-(2-ethoxy-2-oxoethyl) -3-(2-(benzoyloxy)ethyloxycarbonyl) pyridinium bromide]
% Breakage (AGE-BSA; 10 mM test compound): 19%

CCOC(=O)C1CCCN1C(=O)C[n+]1cccc(C(=O)NNS(C)(=O)=O)c1.[Cl-] (stereo not shown) [Compound 52, 1-(2-(2-ethoxycarbonylpyrrolidin-1-yl)-2-oxoethyl)-3-(methanesulfonyl hydrazinocarbonyl) pyridinium chloride]
% Breakage (AGE-BSA; 10 mM test compound): 25.34%

O=C(NNC(=O)c1ccc[n+](CC(=O)c2ccc(Cl)s2)c1)c1ccc[n+](CC(=O)c2ccc(Cl)s2)c1 [Compound 62, N, N'-bis [3-carbonyl-1-(2-(5-chlorothien-2-yl)-2-oxoethyl)pyridinium] hydrazine dichloride]
% Breakage (AGE-BSA; 10 mM test compound): 78.41% | AGE breaking activity compared to PTB (AGE-BSA): superior | potency (AGE breaking activity compared to PTB) (AGE-BSA): significantly much higher

CCOC(=O)C[n+]1cccc(C(=O)NCCO)c1.[Br-] [Compound 87, 1-(2-Ethoxy-2-oxoethyl)-3-((2-hydroxyethyl)aminocarbonyl) pyridinium bromide]
% Breakage (AGE-BSA; 10 mM test compound): 43%

O=C(C[n+]1ccsc1)c1ccccc1 [PTB, reference compound]
% Breakage (AGE-BSA; 10 mM test compound): 27% | % Breakage (AGE-BSA; 20 mM test compound): 47%

Cc1ccc(C(=O)NNS(C)(=O)=O)c[n+]1CC(=O)c1cccs1 [Compound 57, 1-(2-thien-2'-yl-2-oxoethyl)-3-(methanesulfonyl hydrazinocarbonyl) -6-methyl pyridinium bromide]
% Breakage (AGE-BSA; 1 mM test compound): 77.69%

O=C(C[n+]1cccc(C(=O)NNC(=O)c2ccc[n+](CC(=O)c3ccccc3)c2)c1)c1ccccc1 [Compound 1, N, N'-bis [3-carbonyl-1-(2-phenyl-2-oxoethyl)-pyridinium] hydrazine dibromide]
% Breakage (AGE-BSA; 5 mM test compound): 13%

O=C(C[n+]1ccc(C(=O)NCCOC(=O)c2ccccc2)cc1)Nc1ccccc1.[Cl-] [Compound 66, 1-(2-phenylamino-2-oxoethyl)-4-[2-(benzoyloxy)ethylaminocarbonyl] pyridinium chloride]
% Breakage (AGE-BSA; 10 mM test compound): 19.07%

NC(=O)c1ccc[n+](CC(=O)c2cccs2)c1 [Compound 85, 3-Carbonylamino-1-(2-thien-2'-yl-2-oxoethyl)-pyridinium bromide]
% Breakage (AGE-BSA; 10 mM test compound): 3%

COCCNC(=O)c1cc(Br)c[n+](CC(=O)c2cccs2)c1 [Compound 47, 1-(2-thien-2'-yl-2-oxoethyl)-3-((2-methoxyethyl)aminocarbonyl)-5-bromo pyridinium chloride]
% Breakage (AGE-BSA; 10 mM test compound): 32.38% | AGE breaking activity compared to PTB (AGE-BSA): superior

NC(=O)c1cc(C(=O)NNC(=O)c2ccc[n+](CC(=O)c3cccs3)c2)c[n+](CC(=O)c2cccs2)c1 [Compound 60, 1-[1-(2-thien-2'-yl-2-oxoethyl)-5-aminocarbonyl-3-carbonylpyridinium]-2-[1-(2-Thien-2'-yl-2-oxoethyl)-3-carbonylpyridinium] hydrazine dichloride]
% Breakage (AGE-BSA; 1 mM test compound): 95.36%

CCOC(=O)C1CCCN1C(=O)C[n+]1cccc(C(=O)NNC(=O)c2ccc[n+](CC(=O)N3CCCC3C(=O)OCC)c2)c1 (stereo not shown) [Compound 59, N, N'-bis [3-carbonyl-1-(2-(2-ethoxycarbonyl pyrrolidin-1-yl)-2-oxoethyl)pyridinium] hydrazine dichloride]
% Breakage (AGE-BSA; 10 mM test compound): 20.31%
